The results in this text go back to PubChem BioAssay (NCI).

Among the test systems are HT29 colon; HL-60(TB) leukemia; ACHN renal; OVCAR-4 ovarian; IGROV1 ovarian; MDA-MB-231 breast; M14 melanoma; SK-MEL-28 melanoma; SR leukemia; COLO 205 colon; A549 NSCLC.
Assay in all cases: inhibition of tumour cell growth, NCI panel, 48 h

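Grown in 96-well plates, cells were treated for 48 hours with each compound at five concentrations. Insufficient inhibition: endpoint recorded as highest concentration tested. The concentration for full growth arrest is given as TGI.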

`O=C(Nc1ccc(S(=O)(=O)Nc2ncccn2)cc1)c1c2ccccc2nc2ccccc12`: the TGI in the assay on HT29 colon, with HL-60(TB) leukemia, in the assay with ACHN renal, with OVCAR-4 ovarian, with IGROV1 ovarian and in the assay with MDA-MB-231 breast was over 100 µM each time. Also, the TGI with M14 melanoma, in the assay with SK-MEL-28 melanoma, in the assay on SR leukemia, in the assay with COLO 205 colon and in the assay on A549 NSCLC was over 100 µM in each case.
Take `COc1ccccc1Cn1[nH]c(=O)c2cc([N+](=O)[O-])ccc21`: the TGI with HT29 colon, in the assay on HL-60(TB) leukemia, with ACHN renal, in the assay on OVCAR-4 ovarian, in the assay on IGROV1 ovarian and with MDA-MB-231 breast was over 100 µM throughout. Also, the TGI with M14 melanoma, with SK-MEL-28 melanoma, in the assay with SR leukemia, in the assay on COLO 205 colon and in the assay with A549 NSCLC was over 100 µM each time.
As to `CC(Cc1ccc2c(c1)OCO2)N(C)C(=O)C1=CCN(C)CC1` (configuration not stated), the TGI in the assay on HT29 colon, in the assay on HL-60(TB) leukemia, in the assay on ACHN renal, in the assay with OVCAR-4 ovarian, in the assay on IGROV1 ovarian and in the assay with MDA-MB-231 breast was over 100 µM each time. Also, the TGI with M14 melanoma, in the assay on SK-MEL-28 melanoma, with SR leukemia, in the assay on COLO 205 colon and in the assay on A549 NSCLC was over 100 µM throughout.
Turning to `C=CC[C@H]1[C@H](O[Si](C)(C)C(C)(C)C)C=CC(=O)[C@@H]1CC(=O)OCC`, the TGI was determined as 21.2 µM with HT29 colon; 24.8 µM in the assay on HL-60(TB) leukemia; 27.2 µM in the assay with ACHN renal; 25.2 µM in the assay with OVCAR-4 ovarian; 32.8 µM in the assay with IGROV1 ovarian; 27.6 µM in the assay with MDA-MB-231 breast. Moreover, the TGI with M14 melanoma worked out at 25.3 µM; with SK-MEL-28 melanoma it was 34.6 µM; in the assay on SR leukemia it was 41.7 µM; in the assay with COLO 205 colon, 28.6 µM; in the assay on A549 NSCLC it was 23.9 µM.
As to `COC(=O)CCC(C)[C@H]1CCC2C3C(C[C@H](OC(C)=O)[C@@]21C)[C@@]1(C)CCC2(C[C@H]1C[C@H]3OC(C)=O)OOC1(CCCCC1)OO2` (some centres not stated), the TGI is over 100 µM in the assay on HT29 colon; over 100 µM with HL-60(TB) leukemia; 77.3 µM with ACHN renal; 50.9 µM with OVCAR-4 ovarian; 20.8 µM in the assay on IGROV1 ovarian; over 100 µM in the assay with MDA-MB-231 breast. Also, the TGI with M14 melanoma is over 100 µM; in the assay with SK-MEL-28 melanoma it was over 100 µM; with SR leukemia it was over 100 µM; in the assay with COLO 205 colon, over 100 µM; with A549 NSCLC, 70.7 µM.
In the case of `CC(=O)Nc1nnc(S(=O)(=O)NC(=S)Nc2ccc(Cl)cc2)s1`, the TGI in the assay on HT29 colon, with HL-60(TB) leukemia, in the assay on ACHN renal, with OVCAR-4 ovarian, in the assay on IGROV1 ovarian and with MDA-MB-231 breast was over 100 µM in each case. Further, the TGI with M14 melanoma, in the assay with SK-MEL-28 melanoma, in the assay on SR leukemia, in the assay with COLO 205 colon and with A549 NSCLC was over 100 µM in each case.
Turning to `CN1CCCC(C(=O)OCC(=O)C2(O)CCC3C4CCC5=CC(=O)CCC5(C)C4C(O)CC32C)C1` (configuration not stated), the TGI is 27 µM in the assay on HT29 colon; 11 µM in the assay with HL-60(TB) leukemia; 34.8 µM in the assay with ACHN renal; 32.5 µM with OVCAR-4 ovarian; over 60.1 µM in the assay on IGROV1 ovarian; 19.2 µM in the assay on MDA-MB-231 breast. For the same compound, the TGI in the assay with M14 melanoma is 59.3 µM; in the assay on SK-MEL-28 melanoma, 35.4 µM; with SR leukemia, 4.47 µM; with COLO 205 colon, 32.9 µM; in the assay with A549 NSCLC, over 67.6 µM.
Regarding `CC(=O)/C(=C(/Br)I)c1ccccc1`, the TGI worked out at 13.8 µM in the assay on HT29 colon; 4.95 µM with HL-60(TB) leukemia; 27.6 µM with ACHN renal; 25 µM in the assay with OVCAR-4 ovarian; 49.3 µM in the assay on IGROV1 ovarian; 28.7 µM in the assay on MDA-MB-231 breast. In addition, the TGI with M14 melanoma came out at 21.3 µM; in the assay on SK-MEL-28 melanoma, 26.5 µM; in the assay with SR leukemia, 13.5 µM; in the assay on COLO 205 colon, 26.4 µM; in the assay on A549 NSCLC, 51.7 µM.
In the case of `CC(C)OP(=O)(OC(C)C)C(Nc1cccc(C(F)(F)F)c1)c1ccccc1` (configuration not stated), the TGI in the assay with HT29 colon, in the assay on HL-60(TB) leukemia, with ACHN renal, with OVCAR-4 ovarian, in the assay with IGROV1 ovarian and in the assay with MDA-MB-231 breast was over 100 µM in each case. Further, the TGI is over 100 µM with M14 melanoma; over 100 µM with SK-MEL-28 melanoma; over 100 µM in the assay on SR leukemia; 84 µM in the assay with COLO 205 colon; over 100 µM in the assay on A549 NSCLC.
Turning to `NCCCCCNOCCCN`, the TGI in the assay on HT29 colon, in the assay with HL-60(TB) leukemia, in the assay with ACHN renal, in the assay with OVCAR-4 ovarian, in the assay on IGROV1 ovarian and in the assay with MDA-MB-231 breast was over 100 µM in each case. The TGI with M14 melanoma, in the assay with SK-MEL-28 melanoma, in the assay with SR leukemia, with COLO 205 colon and in the assay with A549 NSCLC was over 100 µM throughout.
As to `COC(=O)C1(C)OC(C)=NC1(C(=O)OC)C(=O)OC` (configuration not stated), the TGI with HT29 colon is over 100 µM; in the assay on HL-60(TB) leukemia, 14.4 µM; in the assay with ACHN renal it was over 100 µM; in the assay on OVCAR-4 ovarian it was over 100 µM; in the assay with IGROV1 ovarian it was over 100 µM; in the assay with MDA-MB-231 breast, over 100 µM. The TGI in the assay with M14 melanoma, in the assay on SK-MEL-28 melanoma, in the assay with SR leukemia, in the assay on COLO 205 colon and in the assay on A549 NSCLC was over 100 µM each time.
With `Cc1ccc(-n2cc(-c3ccc(Cl)cc3)c(C#N)c2N)cc1`, the TGI in the assay with HT29 colon was determined as 27 µM; in the assay on HL-60(TB) leukemia, 90.7 µM; in the assay on ACHN renal, 50 µM; in the assay on OVCAR-4 ovarian, 28.4 µM; in the assay on IGROV1 ovarian, 29.9 µM; in the assay on MDA-MB-231 breast, 28.7 µM. In addition, the TGI with M14 melanoma was 28.7 µM; with SK-MEL-28 melanoma, 33.2 µM; with SR leukemia, over 100 µM; in the assay with COLO 205 colon, 27.1 µM; in the assay on A549 NSCLC, 43.2 µM.
